The structures appear in SMILES notation. Read-outs that look alike come from different tables or passages of the source.

Data set [1] has as its system Swiss-albino adult male mice. The data set is described as follows: Twenty days in vivo toxicity study. The settings on record: for Survival of mice till the end of the experiment: subcutaneous, twenty days study; for Creatinine / SGOT / SGPT: serum. As to the method: Experimental animals: Thirty six Swiss-albino adult male mice (body weight range 20 ± 5 gm) were purchased from the Department of Pharmacy, Jahangirnagar University, Bangladesh. Mice were housed in a 12 h day night cycle (light on at 7 am and off at 7 pm) providing bench light of 350 lux, at 25 ± 2 °C temperature and 55 ± 10% humidity. Mice were reared in the cages (580 × 375 × 190 mm), supplied with commercially available food pellet [Rodent diet, ICDDRB, Bangladesh] and drinking water ad libitum. Body weight of each mouse was measured twice every day and other physical changes recorded.
Animal sacrifice, blood and organs collection: Twenty four hours following the last treatment and test, the mice were kept in fasting overnight. Then, they were anaesthetized with intraperitoneal injection of sodium pentobarbital (35 mg/kbw) [Phenobarbital, Incepta Pharmaceuticals, Bangladesh] and sacrificed as shown in Table 9
Blood was collected immediately, centrifuged at 1000 rpm, collected plasma and serum were preserved at –80 °C for biochemical study (SGPT, SGOT and Creatinine). Biochemical investigations were carried out in an auto analyzer (Photometer 5010 V5+, Robert Riely, Berlin, Germany) using Sigma Aldrich (Saint Louis, MO, USA) reagent kit. The mice model preliminary toxicity study was approved by the Biosafety, Biosecurity and Ethical Committee [Approval Number: BBEC-JU/M2019(12)1] of Jahangirnagar University, Savar, Dhaka, Bangladesh. Statistical analysis was conducted through SPSS using Satterthwaite’s method for equality of variances.

For data set [2], the system named is MCF-7. The data set is described as follows: MTT reduction assay, cytotoxicity. The settings on record: MCF-7 cell line. The class given is cell-based, human. The protocol: (§1) Dose response curves have been presented in Supplementary File (Figures S1–S5).
(§2) The method for determining single drug cytotoxicity and activity of drugs in sequenced combination was the same as described in our previous articles. […] The plates were then left to incubate under normal growth conditions for 72 h. […] Four hours after the addition of the MTT solution (50 µL per well of 1 mg/mL MTT solution), the purple formazan crystals produced from the reduction of MTT were dissolved in 150 µL DMSO and read with a iMarkTM Bio-Rad Microplate Reader Version 1.04.02.E. The IC50 values were obtained from the results of at least three independent experiments. Proteomic study was conducted following same procedure mentioned before in our published research article.
Background: Tetrazolium assays rely on reduction of a dye to a coloured formazan, in cell work by metabolically active cells.

Data set [3] relates to Hela. The data set is described as follows: MTT reduction assay, cytotoxicity. Conditions: Hela cell line. Type of data set: cell-based, human. The protocol: as §1, §2
Data set [4] has as its system A2780^ZDO473R. The data set is described as follows: MTT reduction assay, cytotoxicity. Type of data set: cell-based, human. The protocol: as §1, §2
Data set [5] concerns A2780^cisR. The data set is described as follows: MTT reduction assay, cytotoxicity. Type of data set: cell-based, human. The settings on record: A2780^cisR cell line. As to the method:
as §1, §2

Data set [6] concerns A2780. The data set is described as follows: MTT reduction assay, cytotoxicity. Type of data set: cell-based, human. The settings on record: parent ovarian A2780 cell line. The protocol:
as §1, §2

In data set [7] the test system is HT-29 cell line. The data set is described as follows: Binary sequenced combination study (MTT, CI and dose-effect parameters). The class given is cell-based, human. Conditions: single drug; for IC50: read-out: Dm (median effect dose). The protocol:
(§3) Binary sequenced combinations of NH3 with curcumin and EGCG have been investigated in both ovarian and colorectal cancer models using four different cell lines.
as §2

Data set [8] relates to Caco-2 cell line. The data set is described as above. Type of data set: cell-based, human. The settings on record: single drug; for IC50: read-out: Dm (median effect dose). As to the method: as §3, §2
In data set [9] the test system is A2780^cisR cell line. The description is as above. Type of data set: cell-based, human. The settings on record: single drug; for IC50: read-out: Dm (median effect dose). As to the method:
as §3, §2

Data set [10] has as its system A2780 cell line. The description is as above. Type of data set: cell-based, human. The settings on record: single drug; for IC50: read-out: Dm (median effect dose). The protocol:
as §3, §2

Data set [11] relates to HT-29 cell line. The data set is described as follows: Proteomic study, protein expression after treatment with NH3 alone. The class given is cell-based, human.
Source text: (§4) The study has provided information on the underlying mechanism of antitumor activity of NH3 alone in different cell lines. Total of 19 (seven from A2780 cell line, nine from A2780^cisR cell line and three from HT-29 cell line) proteins have been identified from the present study that underwent significant changes in expression following treatment with NH3 alone. Change in folds of the respective proteins after treatment with NH3 alone is shown in Table 2 (A2780 cell line), Table 3 (A2780^cisR cell line) and Table 4 (HT-29 cell line).
as §2

The test system of data set [12] is A2780 cell line. The data set is described as above. The class given is cell-based, human.
Source text: as §4, §2

For data set [13], the system named is A2780^cisR cell line. The class given is cell-based, human.
Source text: as §4, §2

The test system of data set [14] is Raji (lymphoma), Hela (cervical) and PC-3 (prostate) cancer cell line. Conditions: cited from earlier work.

Regarding `[O-]c1cccc2cccnc12.[O-]c1cccc2cccnc12.[Pd+2]` [NH3, [Bis(1,8-quinolato)palladium (II)]], the “Change in mean body weight of mice” value in data set [1] (both lower (2.5 mg/kg) and higher (5 mg/kg) doses, vs control groups) was “Decrease in body weight is also significant”. Also, the “Toxicity compared to cisplatin” value in [1] (both lower (2.5 mg/kg) and higher doses (5 mg/kg), twenty days) is reported as “less toxic”. Further, the “Survival of mice till the end of the experiment” value in data set [1] (higher dose 5 mg/kg) is reported as “only one mouse died”; in data set [1] (lower dose 2.5 mg/kg) it was “All mice were alive”. Also, the Creatinine in [1] (2.5 mg/kg) came to 0.9 ± 0.2 mg/dL; in data set [1] (5 mg/kg) it was 0.7 ± 0.2 mg/dL. Also, the SGOT in [1] (2.5 mg/kg) is listed as 53 ± 4 IU/L; in [1] (5 mg/kg), 59 ± 5 IU/L. Also, the SGPT turned out to be 45 ± 3 IU/L in [1] (2.5 mg/kg) and 48 ± 4 IU/L in [1] (5 mg/kg). The “times greater cytotoxicity than cisplatin” value was “around 65 times” in data set [2] and “around 10 times” in [3]. The “times greater activity than cisplatin” value in data set [4] worked out at 80 times; in data set [5], 90 times; in data set [6] it was 10 times. Besides, the “m (exponent defining the shape of the dose–effect curve)” value in data set [7] turned out to be 2.06; in data set [8], 1.96; in data set [9], 2.05; in data set [10] it was 1.97. Also, the IC50 in data set [7] was found to be 0.38 µM; in data set [8], 0.56 µM; in data set [9], 0.23 µM; in data set [10], 0.18 µM. For the same compound, in data set [11] (spot Hn70), the “Change in Expression: Nucleoside Diphosphate kinase B” value was “Downregulated”. The “Fold Change: Nucleoside Diphosphate kinase B” value in data set [11] (spot Hn70, Downregulated) worked out at 2.14. For the same compound, the “Change in Expression: Annexin A1” value in data set [11] (spot Hn89) is “Downregulated”. Moreover, the “Fold Change: Annexin A1” value in data set [11] (spot Hn89, Downregulated) is 1.85. For the same compound, in data set [11] (spot Hn119), the “Change in Expression: Histone H4” value is on record as “Downregulated”. Moreover, in [11] (spot Hn119, Downregulated), the “Fold Change: Histone H4” value is 1.91. The “Change in Expression: Actin, cytoplasmic 1” value in [12] (spot 6), in data set [13] (spot 1) and in data set [13] (spot Cn79) was “Downregulated” throughout. Further, the “Fold change: Actin, cytoplasmic 1” value in data set [12] (spot 6, Downregulated) was determined as 4.8; in data set [13] (spot 1, Downregulated), 1.51; in data set [13] (spot Cn79, Downregulated), 2.79. In addition, in data set [12] (spot 12), the “Change in Expression: Vimentin” value is recorded as “Downregulated”. Also, in data set [12] (spot 12, Downregulated), the “Fold Change: Vimentin” value worked out at 1.63. Besides, in [12] (spot 13), the “Change in Expression: 60 kDa heat shock protein, mitochondrial” value was “Downregulated”. Also, the “Fold Change: 60 kDa heat shock protein, mitochondrial” value in data set [12] (spot 13, Downregulated) is listed as 3.23. For the same compound, in data set [12] (spot 18), the “Change in Expression: Endoplasmin” value is “Downregulated”. Besides, the “Fold Change: Endoplasmin” value in data set [12] (spot 18, Downregulated) came out at 4.56. Besides, the “Change in Expression: 78 kDa glucose-regulated protein” value in data set [12] (spot 45) is on record as “Downregulated”. The “Fold Change: 78 kDa glucose-regulated protein” value in [12] (spot 45, Downregulated) is recorded as 2.00. Also, the “Change in Expression: Polyubiquitin-B” value in data set [12] (spot 118) is listed as “Downregulated”. Further, the “Fold Change: Polyubiquitin-B” value in [12] (spot 118, Downregulated) came to 11.39. For the same compound, the “Change in Expression: Histone H3.3” value in data set [12] (spot 155) is reported as “Downregulated”. Moreover, in data set [12] (spot 155, Downregulated), the “Fold Change: Histone H3.3” value is on record as 6.63. Also, the “Change in Expression: 40S ribosomal protein SA” value in data set [13] (spot Cn9) was “Downregulated”. Also, the “Fold change: 40S ribosomal protein SA” value in data set [13] (spot Cn9, Downregulated) is reported as 2.98. Besides, the “Change in Expression: Heat shock cognate 71 kDa protein” value in [13] (spot Cn16) was “Downregulated”. Further, the “Fold change: Heat shock cognate 71 kDa protein” value in data set [13] (spot Cn16, Downregulated) is 1.69. Further, the “Fold change: Keratin, type II cytoskeletal 1” value in [13] (spot Cn23, Upregulated) is listed as 2.47. Besides, in data set [13] (spot Cn34), the “Change in Expression: Elongation factor Tu, mitochondrial” value is given as “Downregulated”. Further, the “Fold change: Elongation factor Tu, mitochondrial” value in data set [13] (spot Cn34, Downregulated) worked out at 7.86. Further, in [13] (spot Cn41), the “Change in Expression: Citrate synthase, mitochondrial” value is “Downregulated”. The “Fold change: Citrate synthase, mitochondrial” value in [13] (spot Cn41, Downregulated) stood at 2.93. Besides, the “Change in Expression: Transitional endoplasmic reticulum ATPase” value in data set [13] (spot Cn56) is given as “Downregulated”. The “Fold change: Transitional endoplasmic reticulum ATPase” value in data set [13] (spot Cn56, Downregulated) was 3.87. The “Change in Expression: Cofilin-1” value in [13] (spot Cn69) is listed as “Downregulated”. Also, in data set [13] (spot Cn69, Downregulated), the “Fold change: Cofilin-1” value turned out to be 2.27.

Consider `O=C(O[C@@H]1Cc2c(O)cc(O)cc2O[C@@H]1c1cc(O)c(O)c(O)c1)c1cc(O)c(O)c(O)c1` [EGCG, epigallocatechin gallate], for which the “m (exponent defining the shape of the dose–effect curve)” value in [7] was found to be 0.39; in [8], 1.32; in data set [9], 0.93; in [10] it was 0.94. For the same compound, the IC50 in [7] was 3.67 µM; in [8], 108 µM; in [9], 8.9 µM; in data set [10] it was 10.3 µM.

In the case of `Oc1cccc2cccnc12` [8-Hydroxyquinoline], the Antitumor activity result in data set [14] is “significant antitumor activity”.

As to `COc1cc(/C=C/C(=O)CC(=O)/C=C/c2ccc(O)c(OC)c2)ccc1O` [Curcumin, curcumin], the IC50 in data set [7] (Homo sapiens) stood at 16.6 µM; in [8] (Homo sapiens), 21.9 µM; in data set [9] (Homo sapiens, A2780cisR), 16.7 µM; in data set [10] (Homo sapiens), 8.63 µM. The “m (exponent defining the shape of the dose–effect curve)” value in data set [7] was determined as 1.25; in data set [8], 1.08; in [9], 1.56; in data set [10] it was 1.25.

These data come from article PMC8395214, “Promising Anticancer Activity of [Bis(1,8-quinolato)palladium (II)] Alone and in Combination” (International Journal of Molecular Sciences, 2021).
